17 compounds from patent US10342796B2, “Acrylanilide derivative, preparation method, and applications thereof in pharmacy” (Ancureall Pharmaceutical (Shanghai) Co., Ltd., priority 2015, dated 2019) can be followed below.

Holding throughout (assay): Growth inhibition GI50 in vitro (CCK8/MTT, 72 h)
Holding throughout (assay type): cell-based, human

For one test, the system named is H1975 (EGFR L858R/T790M). The settings on record: Homo sapiens, NCI-H1975; Table 13, 72 h; read-out: Range of GI50 H1975 (EGFR L858R/T790M). As for the experimental part: (§1) PC-9ER is an acquired Erlotinib resistance cell line of PC-9 cells developed by the investor. […] The four cell lines above were cultured with 1×RPMI1640 complete medium (supplement with 10% FBS). Human colon cancer cell line SW48 (EGFR G719S positive, ATCC). was cultured with L15 complete medium (10% FB S).
(§2) The suspension cells were collected by centrifugation. The supernatant was discard and the cell pellet was resuspended and counted. Different cell concentrations (5˜10×10^4 cells/mL) were prepared according to the growth cycle of each cell line and then seeded on a 96-well plate (Corning), 100 μL/well. The cells were incubated over night at 37° C., 5% CO2. The compounds were added to the cells on the second day with 2 wells in parallel. The final concentration of organic solvent shall not exceed 1%. The cells were continually incubated for 72 h, and then subjected to MTT assay.
(§3) The present compounds and the reference compounds were dissolved with DMSO (Sigma), respectively. […] The storage concentration of compounds was 10 mM and kept at −20° C. They were diluted by 2 times or 10 times with serial dilution before using.
(§4) Dojindo CCK8 reagent kit was used as MTT assay. […] FC meter was used as microplate reader.
(§5) Adherent cell culture medium was discard and immediately replaced with fresh prepared medium which contains 10% CCK8 reagent (100 μL/well). For the suspension cells, CCK8 was directly added to 10% of the final concentration. The cells were continually incubated for 1˜4 h. When the color of control wells turned to dark yellow, the absorption value was measured at OD450 nm. The cell growth rate was calculated according to the following formula: cell growth rate (%)=100*(T−T0)/(C−T0), T=optical density of drug treatment cell well—optical density of blank control well; T0=optical density of cell well before drug treatment—optical density of blank control well; C=optical density of cell well of solvent control group—optical density of blank control well. […] The experiment was independently repeated 1˜3 times, and subject to biological statistical analysis.

Another test relates to PC-9 (EGFR dE746-A750). As to conditions: Homo sapiens; Table 13, 72 h; read-out: Range of GI50 PC-9 (EGFR dE746-A750). The method, then:
as §1, §2, §3, §4, §5

Another test has as its system N87 (HER2 Amp). As to conditions: Homo sapiens; Table 13, 72 h; read-out: Range of GI50 N87 (HER2 Amp).
A further test concerns A549 (EGFR WT). The settings on record: Homo sapiens, A549; Table 13, 72 h; read-out: Range of GI50 A549 (EGFR WT).
Text: EGFR wild type cell lines: human epidermal cancer cell line A431 (EGFR WT, amplification and high expression, from Shanghai Cell Bank of Chinese Academy of Sciences and ATCC), NSCLC cell lines NCI-H460 (EGFR WT, Kras G61H and PI3KCA E545K mutants, ATCC) and NCI-H1299 (EGFR WT, ATCC), melanoma cell line A375 (EGFR WT and BRAF V600E mutant, from Shanghai Cell Bank of Chinese Academy of Sciences, ATCC), human lung cancer cell line NCI-H292 (EGFR WT, from human lung mucoepidermoid carcinoma/lymphatic metastasis, purchased from Shanghai Cell Bank of Chinese Academy of Sciences) were cultured with 1×RPMI1640 complete medium which was supplement with 10% FBS. NSCLC cell line A549 (EGFR WT and Kras G12S mutant, from Shanghai Cell Bank of Chinese Academy of Sciences) was cultured with 1×Ham'S F12K complete medium which was supplement with 10% FBS, 1% double-antibiotics and 2 mM glutamine.
as §2, §3, §4, §5

In the case of `C#Cc1cc(Nc2cc(Nc3cc(NC(=O)C=C)c(N(C)CCN(C)C)cc3OC)ncn2)ccc1OC` [Compound 251, N-(5-(6-(3-acetenyl-4-methoxyl-phenylamino)-pyrimidin-4-yl-amino)-2-((2-dimethylamino-ethyl)-methyl-amino)-4-methoxyl-phenyl)-acrylamide], the GI50 was under 10 nM with H1975 (EGFR L858R/T790M), under 10 nM with PC-9 (EGFR dE746-A750), under 10 nM in the test with N87 (HER2 Amp) and over 1000 nM in the test on A549 (EGFR WT).

On to `C=CC(=O)Nc1cc(Nc2cc(Nc3ccc(Cl)c(C(F)(F)F)c3)ncn2)c(OC)cc1N(C)CCN(C)C` [Compound 228, N-(5-(6-(4-chloro-3-trifluoromethyl-phenylamino)-pyrimidin-4-yl-amino)-2-((2-dimethylamino-ethyl)-methyl-amino)-4-methoxyl-phenyl)-acrylamide], for which the GI50 in the test with H1975 (EGFR L858R/T790M) was 10 to 100 nM; in the test on PC-9 (EGFR dE746-A750) it was under 10 nM; in the test with N87 (HER2 Amp), 10 to 100 nM; with A549 (EGFR WT), over 1000 nM.

For `C=CC(=O)Nc1cc(Nc2cc(Nc3ccc(OC)c(C#N)c3)ncn2)c(OC)cc1N(C)CCN(C)C` [Compound 255, N-(5-(6-(3-cyano-4-methoxyphenylamino)-pyrimidin-4-yl-amino)-2-((2-dimethylamino-ethyl)-methyl-amino)-4-methoxyl-phenyl)-acrylamide], the GI50 was 10 to 100 nM with H1975 (EGFR L858R/T790M), 10 to 100 nM in the test with PC-9 (EGFR dE746-A750), 10 to 100 nM in the test on N87 (HER2 Amp) and over 1000 nM in the test on A549 (EGFR WT).

In the case of `C=CC(=O)Nc1cc(Nc2nccc(-n3ccc4c(OCCCCCC)cccc43)n2)c(OC)cc1N(C)CCN(C)C` [Compound 206, N-(5-(4-(4-n-hexyloxy-1H-indol-1-yl)-pyrimidin-2-ylamino)-2-(2-(dimethylamino-ethyl)-methyl-amino)-4-methoxyl-phenyl)-acrylamide], the GI50 is 100 to 1000 nM in the test on H1975 (EGFR L858R/T790M), 100 to 1000 nM with PC-9 (EGFR dE746-A750), 100 to 1000 nM in the test on N87 (HER2 Amp) and over 1000 nM in the test on A549 (EGFR WT).

As to `C=CC(=O)Nc1cc(Nc2cc(Nc3cc(F)c(OCCOC)c(Cl)c3)ncn2)c(OC)cc1N(C)CCN(C)C` [Compound 237, N-(5-(6-(3-chloro-5-fluoro-4-(2-methoxyl-ethoxyl)-phenylamino)-pyrimidin-4-yl-amino)-2-((2-dimethylamino-ethyl)-methyl-amino)-4-methoxyl-phenyl)-acrylamide], the GI50 in the test on H1975 (EGFR L858R/T790M) was 10 to 100 nM; in the test on PC-9 (EGFR dE746-A750), 10 to 100 nM; with N87 (HER2 Amp), 10 to 100 nM; in the test with A549 (EGFR WT), over 1000 nM.

Turning to `C=CC(=O)Nc1cc(Nc2cc(Nc3cc(OC)c(Cl)cc3Cl)ncn2)c(OC)cc1OCCCN1CCCC1` [Compound 245], the GI50 was 10 to 100 nM in the test with H1975 (EGFR L858R/T790M), 10 to 100 nM in the test on PC-9 (EGFR dE746-A750), 10 to 100 nM in the test with N87 (HER2 Amp) and over 1000 nM in the test on A549 (EGFR WT).

Regarding `C=CC(=O)Nc1cc(Nc2cc(Nc3cc(OC)c(Cl)cc3Cl)ncn2)c(OC)cc1OCCCN1CCN(C)CC1` [Compound 248], the GI50 in the test on H1975 (EGFR L858R/T790M) is 10 to 100 nM; in the test on PC-9 (EGFR dE746-A750) it was under 10 nM; with N87 (HER2 Amp), under 10 nM; in the test on A549 (EGFR WT) it was over 1000 nM.

`C=CC(=O)Nc1cc(Nc2cc(Nc3cc(OC)c(Cl)cc3Cl)ncn2)c(OC)cc1OCCN(C)C` [Compound 242, N-(5-(6-(2,4-dichloro-5-methoxyl-phenylamino)-pyrimidin-4-ylamino)-2-(2-dimethylamino-ethoxyl)-4-methoxyl-phenyl)-acrylamide]: the GI50 is under 10 nM in the test on H1975 (EGFR L858R/T790M), under 10 nM in the test with PC-9 (EGFR dE746-A750), under 10 nM in the test on N87 (HER2 Amp) and over 1000 nM with A549 (EGFR WT).

In the case of `C=CC(=O)Nc1cc(Nc2cc(Nc3ccc(OCC4CCCO4)c(Cl)c3)ncn2)c(OC)cc1N(C)CCN(C)C` (stereo not shown) [Compound 254, N-(5-(6-(3-chloro-4-(tetrahydrofuran-2-ylmethoxy)-phenylamino)-pyrimidin-4-ylamino)-2-((2-dimethylamino-ethyl)-methyl-amino)-4-methoxyl-phenyl)-acrylamide], the GI50 with H1975 (EGFR L858R/T790M) is 10 to 100 nM; in the test with PC-9 (EGFR dE746-A750), 10 to 100 nM; in the test with N87 (HER2 Amp) it was 10 to 100 nM; with A549 (EGFR WT) it was over 1000 nM.

Regarding `C=CC(=O)Nc1cc(Nc2nccc(-n3ccc4c(OCC5CCCO5)cccc43)n2)c(OC)cc1N(C)CCN(C)C` (stereo not shown) [Compound 207, N-(5-(4-(4-((tetrahydrofuran-2-yl)-methoxyl)-1H-indol-1-yl)-pyrimidin-2-ylamino)-2-(2-(dimethylamino-ethyl)-methyl-amino)-4-methoxyl-phenyl)-acrylamide], the GI50 with H1975 (EGFR L858R/T790M) is 10 to 100 nM; in the test with PC-9 (EGFR dE746-A750), 10 to 100 nM; in the test with N87 (HER2 Amp), 10 to 100 nM; with A549 (EGFR WT), over 1000 nM.

With `C=CC(=O)Nc1cc(Nc2cc(Nc3ccc(OCC4(C)COC4)c(Cl)c3)ncn2)c(OC)cc1N(C)CCN(C)C` [Compound 252, N-(5-(6-(3-chloro-4-(3-methyl-oxetan-3-yl-methoxyl)-phenylamino)-pyrimidin-4-yl-amino)-2-((2-dimethylamino-ethyl)-methyl-amino)-4-methoxyl-phenyl)-acrylamide], the GI50 in the test on H1975 (EGFR L858R/T790M) was 10 to 100 nM; in the test on PC-9 (EGFR dE746-A750) it was 10 to 100 nM; in the test on N87 (HER2 Amp) it was 10 to 100 nM; in the test on A549 (EGFR WT), over 1000 nM.

Regarding `C=CC(=O)Nc1cc(Nc2cc(Nc3cc(OC)c(Cl)cc3Cl)ncn2)c(OC)cc1OCCN1CCCC1` [Compound 244, N-(5-(6-(2,4-dichloro-5-methoxyl-phenylamino)-pyrimidin-4-yl-amino)-2-(2-(pyrrolidin-1-yl)-ethoxyl)-4-methoxyl-phenyl)-acrylamide], the GI50 in the test with H1975 (EGFR L858R/T790M) was 10 to 100 nM; in the test with PC-9 (EGFR dE746-A750), 10 to 100 nM; in the test with N87 (HER2 Amp), 10 to 100 nM; in the test on A549 (EGFR WT) it was over 1000 nM.

As for `C=CC(=O)Nc1cc(Nc2cc(Nc3ccc(F)c(C(F)(F)F)c3)ncn2)c(OC)cc1N(C)CCN(C)C` [Compound 226, N-(5-(6-(4-fluoro-3-trifluoromethyl-phenylamino)-pyrimidin-4-yl-amino)-2-((2-dimethylamino-ethyl)-methyl-amino)-4-methoxyl-phenyl)-acrylamide], the GI50 with H1975 (EGFR L858R/T790M) was 10 to 100 nM; in the test with PC-9 (EGFR dE746-A750), under 10 nM; in the test on N87 (HER2 Amp), 10 to 100 nM; in the test with A549 (EGFR WT) it was over 1000 nM.

`C=CC(=O)Nc1cc(Nc2cc(Nc3ccc(OCc4nccs4)c(Cl)c3)ncn2)c(OC)cc1N(C)CCN(C)C` [Compound 223, N-(5-(6-(3-chloro-4-(thiazol-2-ylmethoxy)-phenylamino)-pyrimidin-4-ylamino)-2-((2-dimethylamino-ethyl)-methyl-amino)-4-methoxyl-phenyl)-acrylamide]: the GI50 in the test on H1975 (EGFR L858R/T790M) was 10 to 100 nM; in the test with PC-9 (EGFR dE746-A750), 10 to 100 nM; with N87 (HER2 Amp), 10 to 100 nM; with A549 (EGFR WT), over 1000 nM.

For `C=CC(=O)Nc1cc(Nc2cc(Nc3cc(OC)c(Cl)cc3Cl)ncn2)c(OC)cc1N1CCN(C)CC1` [Compound 239, N-(5-(6-(2,4-dichloro-5-methoxyl-phenylamino)-pyrimidin-4-yl-amino)-2-(4-methyl-piperazin-1-yl)-4-methoxyl-phenyl)-acrylamide], the GI50 was 10 to 100 nM in the test with H1975 (EGFR L858R/T790M), under 10 nM in the test with PC-9 (EGFR dE746-A750), 10 to 100 nM in the test on N87 (HER2 Amp) and over 1000 nM in the test with A549 (EGFR WT).

In the case of `C=CC(=O)Nc1cc(Nc2cc(Nc3cc(OC)c(Cl)cc3Cl)ncn2)c(OC)cc1OCCN1CCOCC1` [Compound 243], the GI50 in the test with H1975 (EGFR L858R/T790M) was 10 to 100 nM; with PC-9 (EGFR dE746-A750), 10 to 100 nM; in the test with N87 (HER2 Amp), 10 to 100 nM; in the test with A549 (EGFR WT), over 1000 nM.

With `C=CC(=O)Nc1cc(Nc2cc(Nc3ccc(OC)c(Cl)c3)ncn2)c(OC)cc1N(C)CCN1CCCC1` [Compound 225], the GI50 with H1975 (EGFR L858R/T790M), with PC-9 (EGFR dE746-A750) and with N87 (HER2 Amp) was 10 to 100 nM in each case.
